According to patent publication US20040235955A1, “Remedies for pruritus” (priority 2001, published 2004):

Legend:
[1] = tested on: pruritus induced by serotonin and PGE2; test: inhibitory effect against pruritus induced by serotonin and PGE2 (scratching count); assay type: in vivo; conditions: male ICR mice, scratching counted for 30 minutes, vs control
Experimental: The inhibitory effect against pruritus induced by serotonin and PGE2.
The back of male ICR mice (Charles River Japan Inc., 5 week-old) were sheared by hair clipper. 0.5% MC or the above test compound (100 mg/5 ml/kg or 300 mg/5 ml/kg) was administered orally. After 15 minutes or 1hour, serotonin (3 μg) or mixed solution of serotonin (3 μg) and PGE2 (1nmol) was injected intradermally (20 μl) into the. back of mouse. Scratching of the injected site or the perimeter by the behind paws of mouse was characterized as itch. The scratching was counted for 30 minutes from the injection.
0.5% MC [administration at 15 minutes before the induction]/serotonin (n=10) 0.5% MC [administration at 15 minutes before the induction]/serotonin+PGE2 (n=10) compound (1) [administration at 15 minutes before the induction]/serotonin+PGE2 (n=10) compound (2) [administration at 15 minutes before the
0.5% MC [administration at 1hour before the induction]/serotonin (n=10) 0.5% MC [administration at 1hour before the induction]/serotonin+PGE2 (n=10) compound (3) [administration at 1hour before the induction]/serotonin+PGE2 (n=10)

[2] = tested on: model of allergic dermatitis; test: inhibitory effect against pruritus in a model of allergic dermatitis (DNFB hapten, scratching count); assay type: in vivo; conditions: male BALB/c mice; 0.15% DNFB weekly; 100 mg/5 ml/kg orally; scratching from 3 to 5 hours and from 24 to 26 hours after fifth application of hapten; vs control; FIG. 3
Experimental: The inhibitory effect against pruritus in a model of allergic dermatitis. The back of male BALB/c mice (Charles River Japan Inc., 6 week-old) were sheared by hair clipper. 0.15% dinitrofluorobenzene (DNFB) dissolved in mixed solution of acetone and olive oil as hapten was administered 50 μl by micro pipette in the back once a week. After forth applications, the scratching was measured from 3 to 5 hours and from 24 to 26 hours and mice were divided to each group referring the scratch data. 0.5% MC or the test compound (100 mg/5 ml/kg) was administered orally forth every 30 minutes from 30 minutes before 3 and 24 hours, respectively after fifth application of hapten. The scratching was videotaped from 3 to 5 hours and from 24 to 26 hours, respectively, after fifth application of hapten. The scratching was counted and estimated.

[3] = 100 mg/5 ml/kg orally 15 minutes before intradermal serotonin (3 μg) + PGE2 (1 nmol), FIG. 1

Structure (SMILES) | number of scratching in serotonin and PGE2-induced pruritus [1, 3] | other results
O=C([O-])CCc1ccc(Cn2cccn2)cc1OCCc1ccc2ccccc2c1.[Na+] [Compound (1), sodium 3-(2-(2-(naphthalen-2-yl)ethoxy)-4-(pyrazol-1-ylmethyl)phenyl)propanoate] | inhibited significantly against control | –
CC(C)CC(C(=O)Nc1cc(C#N)ccc1Cc1ccccc1C(=O)[O-])c1cccc2ccccc12.[Na+] (stereo not shown) [Compound (2), sodium 2-[4-cyano-2-[4-methyl-2-(1-naphthyl)pentanoylamino]phenylmethyl]benzoate] | inhibited significantly against control | –
COc1ccc(Br)cc1S(=O)(=O)NC(=O)/C=C/c1ccccc1Cc1ccc2ccccc2c1 [Compound (3), (2E)-N-(5-bromo-2-methoxyphenylsulfonyl)-3-(2-(naphthalen-2-ylmethyl)phenyl) -2-propenamide] | – | number of scratching in serotonin and PGE2-induced pruritus ([1]; 300 mg/5 ml/kg orally 1 hour before intradermal serotonin (3 μg) + PGE2 (1 nmol), FIG. 2): inhibited significantly against control
O=C(O)CCc1ccc(Cn2cccn2)cc1OCCc1ccc2ccccc2c1 [Compound (4), 3-(2-(2-(naphthalen-2-yl)ethoxy)-4-(pyrazol-1-ylmethyl)phenyl)propanoic acid] | – | number of scratching in allergic dermatitis model [2]: inhibited significantly against control
